Article PMC8453943 (Clinical Pharmacology in Drug Development, 2021)
Like-named read-outs stand apart in the source and are kept apart here.

Key:
[1] = Dose proportionality, power model on pooled exposure data; type: in vivo, human; conditions: 40- to 160-mg dose range, pooled parts 1-3
[2] = in vitro assays; cited from earlier work
[3] = Part 3 relative bioavailability of capsule B vs capsule A; type: in vivo, human
[4] = Part 1 single-ascending-dose study, urine PK; type: in vivo, human; conditions: within 48 hours, across all dose groups
[5] = system: CYP3A4/5; conditions: recombinant human CYPs, in vitro; cited from earlier work
[6] = cited from earlier work
[7] = repeat dosing, animals; dermal and gastrointestinal toxicities; cited from earlier work
[8] = Safety and tolerability assessments; type: in vivo, human
[9] = Part 1 single-ascending-dose study, plasma PK; type: in vivo, human; conditions: for Tmax: human, plasma, po; for CL/F, Geometric mean (% CV) / CL/F, Mean (SD): fasted
[10] = preclinical studies; cited from earlier work
[11] = cited from earlier work; remark: listed apart in the source
[12] = Part 2 effect of a low-fat meal on PK; type: in vivo, human; conditions: for AUC(0-inf) / Cmax / Tmax: human, plasma, oral; for Tmax: Median (range)
[13] = system: EGFR; conditions: NSCLC with EGFR exon 20 insertion mutations; cited from earlier work
[14] = part 3, 160 mg, fasted, capsule B (test) vs capsule A (reference)
[15] = AEs in ≥10% of volunteers in any part
[16] = part 1, overall (N = 40, includes pooled placebo)
[17] = part 2, 120 mg, low-fat meal (n = 6)
[18] = part 2, 160 mg, fasted (n = 10)
[19] = part 2, 160 mg, low-fat meal (n = 10)
[20] = part 3, mobocertinib 160 mg, overall (N = 13)
[21] = part 1, 120 mg single oral dose
[22] = part 1, 160 mg single oral dose
[23] = 120 mg, Geometric mean (% CV), part 2, 120 mg, fasted
[24] = 120 mg, Geometric mean (% CV), part 2, 120 mg, low-fat meal
[25] = 120 mg, Mean (SD), part 2, 120 mg, fasted
[26] = 120 mg, Mean (SD), part 2, 120 mg, low-fat meal
[27] = 160 mg, Geometric mean (% CV), part 2, 160 mg, fasted
[28] = 160 mg, Geometric mean (% CV), part 2, 160 mg, low-fat meal
[29] = 160 mg, Mean (SD), part 2, 160 mg, fasted
[30] = 160 mg, Mean (SD), part 2, 160 mg, low-fat meal
[31] = part 2, 120 mg, low-fat meal (test) vs fasted (reference)

## C=CC(=O)Nc1cc(Nc2ncc(C(=O)OC(C)C)c(-c3cn(C)c4ccccc34)n2)c(OC)cc1N(C)CCN(C)C [Mobocertinib]
[1]
  Slope (95% CI) of regression of log mobocertinib AUC∞ vs log dose: 1.20 (0.93‐1.46)
[2]
  Genotoxicity: no evidence of genotoxicity
[3]; human, plasma, oral, 160 mg
  Tmax: 5 to 6 h
[3]; [14]
  AUC∞, LS Geometric Mean Ratio (90%CI): 0.96
  Cmax, LS Geometric Mean Ratio (90%CI): 0.93
[4]
  Administered mobocertinib dose excreted unchanged in urine: < 1.2%
[5]
  Percent contribution of CYP3A4/5 to metabolism: > 90%
[6]; 160 mg once daily, repeat dosing, ref NCT02716116
  Accumulation ratio of AUC0-24, cycle 2 day 1 over cycle 1 day 1: 1.03
[6]; once daily, patients
  Maximum tolerated dose: 160 mg
[7]
  Maximum tolerated dose: 10 mg/kg
[8]; [15]
  Diarrhea: 10.0%
  Flatulence: 12.5%
  Soft feces: 12.5%
[8]; all parts
  Serious AEs: No serious AEs were reported
[8]; part 1 (includes pooled placebo)
  Volunteers who experienced AEs: 48%
[8]; part 1, 20 mg (n = 6)
  AE leading to discontinuation: 0 n (%)
  Any AE: 2 (33) n (%)
  Grade 1 AE: 2 (33) n (%)
  Grade 2 AE: 0 n (%)
  Grade ≥3 AE: 0 n (%)
  Treatment-related AE: 1 (17) n (%)
[8]; part 1, 40 mg (n = 6)
  AE leading to discontinuation: 0 n (%)
  Any AE: 3 (50) n (%)
  Grade 1 AE: 2 (33) n (%)
  Grade 2 AE: 1 (17) n (%)
  Grade ≥3 AE: 0 n (%)
  Treatment-related AE: 0 n (%)
[8]; part 1, 80 mg (n = 6)
  AE leading to discontinuation: 0 n (%)
  Any AE: 4 (67) n (%)
  Grade 1 AE: 3 (50) n (%)
  Grade 2 AE: 1 (17) n (%)
  Grade ≥3 AE: 0 n (%)
  Treatment-related AE: 3 (50) n (%)
[8]; part 1, 120 mg (n = 6)
  AE leading to discontinuation: 0 n (%)
  Any AE: 3 (50) n (%)
  Grade 1 AE: 1 (17) n (%)
  Grade 2 AE: 2 (33) n (%)
  Grade ≥3 AE: 0 n (%)
  Treatment-related AE: 0 n (%)
[8]; part 1, 160 mg (n = 6)
  AE leading to discontinuation: 0 n (%)
  Any AE: 5 (83) n (%)
  Grade 1 AE: 4 (67) n (%)
  Grade 2 AE: 1 (17) n (%)
  Grade ≥3 AE: 0 n (%)
  Treatment-related AE: 3 (50) n (%)
[8]; part 1, 20-mg dose group
  Decrease in serum creatine kinase: –26.8 U/L
[8]; part 1, 160-mg group
  Decrease in serum creatine kinase: –69.0 U/L
[8]; [16]
  AE leading to discontinuation: 0 n (%)
  Any AE: 19 (48) n (%)
  Grade 1 AE: 14 (35) n (%)
  Grade 2 AE: 5 (13) n (%)
  Grade ≥3 AE: 0 n (%)
  Treatment-related AE: 9 (23) n (%)
[8]; part 2
  Volunteers who experienced AEs: 75%
[8]; part 2, 120 mg, fasted (n = 6)
  AE leading to discontinuation: 0 n (%)
  Any AE: 3 (50) n (%)
  Grade 1 AE: 2 (33) n (%)
  Grade 2 AE: 1 (17) n (%)
  Grade ≥3 AE: 0 n (%)
  Treatment-related AE: 3 (50) n (%)
  Treatment-related AE, Grade ≥3: 0 n (%)
[8]; [17]
  AE leading to discontinuation: 0 n (%)
  Any AE: 3 (50) n (%)
  Grade 1 AE: 2 (33) n (%)
  Grade 2 AE: 0 n (%)
  Grade ≥3 AE: 1 (17) n (%)
  Treatment-related AE: 2 (33) n (%)
  Treatment-related AE, Grade ≥3: 0 n (%)
[8]; [18]
  AE leading to discontinuation: 0 n (%)
  Any AE: 5 (50) n (%)
  Grade 1 AE: 5 (50) n (%)
  Grade 2 AE: 0 n (%)
  Grade ≥3 AE: 0 n (%)
  Treatment-related AE: 5 (50) n (%)
  Treatment-related AE, Grade ≥3: 0 n (%)
[8]; [19]
  AE leading to discontinuation: 0 n (%)
  Any AE: 7 (70) n (%)
  Grade 1 AE: 7 (70) n (%)
  Grade 2 AE: 0 n (%)
  Grade ≥3 AE: 0 n (%)
  Treatment-related AE: 4 (40) n (%)
  Treatment-related AE, Grade ≥3: 0 n (%)
[8]; part 2, overall (N = 16)
  AE leading to discontinuation: 0 n (%)
  Any AE: 12 (75) n (%)
  Grade 1 AE: 11 (69) n (%)
  Grade 2 AE: 0 n (%)
  Grade ≥3 AE: 1 (6) n (%)
  Treatment-related AE: 8 (50) n (%)
  Treatment-related AE, Grade ≥3: 0 n (%)
[8]; part 3
  Volunteers who experienced AEs: 46%
[8]; [20]
  AE leading to discontinuation: 1 (8) n (%)
  Grade 1 AE: 5 (39) n (%)
  Grade 2 AE: 1 (8) n (%)
  Grade ≥3 AE: 0 n (%)
  Treatment-related AE: 2 (15) n (%)
  Volunteers with AEs: 6 (46) n (%)
[8]; single oral dose
  Single doses tolerated in healthy adult volunteers: up to 160 mg
[9]
  Tmax: 4 to 6 h
[9]; 80 mg
  Tmax: 4 h
[9]; 120 mg
  Tmax: 6 h
[9]; 160 mg
  Tmax: 6 h
[9]; part 1, 20 mg mobocertinib cohort
  Time for which analyte was quantifiable in plasma: up to 72 hours
[9]; part 1, 20 mg single oral dose
  CL/F, Geometric mean (% CV): 314 (11.9) L/h
  CL/F, Mean (SD): 316 (37.5) L/h
[9]; part 1, 40 mg mobocertinib cohort
  Time for which analyte was quantifiable in plasma: ≤ 96 h
[9]; part 1, 40 mg single oral dose
  CL/F, Geometric mean (% CV): 249 (49.5) L/h
  CL/F, Mean (SD): 283 (140.1) L/h
[9]; part 1, 80 mg mobocertinib cohort
  Time for which analyte was quantifiable in plasma: ≤ 96 h
[9]; part 1, 80 mg single oral dose
  CL/F, Geometric mean (% CV): 312 (72.0) L/h
  CL/F, Mean (SD): 378 (272.2) L/h
[9]; part 1, 120 mg mobocertinib cohort
  Time for which analyte was quantifiable in plasma: ≤ 96 h
[9]; [21]
  CL/F, Geometric mean (% CV): 263 (56.9) L/h
  CL/F, Mean (SD): 292 (166.2) L/h
[9]; part 1, 160 mg mobocertinib cohort
  Time for which analyte was quantifiable in plasma: ≤ 168 h
[9]; [22]
  CL/F, Geometric mean (% CV): 157 (33.2) L/h
  CL/F, Mean (SD): 168 (55.7) L/h
[10]
  Route of elimination: eliminated almost completely through feces
[11]
  Permeability: high permeability
  Solubility: high solubility
[12]; [23]
  AUC(0-inf): 526 ng·h/mL
  Cmax: 31.2 ng/mL
[12]; [24]
  AUC(0-inf): 534 ng·h/mL
  Cmax: 27.5 ng/mL
[12]; [25]
  AUC(0-inf): 587 ng·h/mL
  Cmax: 35.5 ng/mL
[12]; [26]
  AUC(0-inf): 578 ng·h/mL
  Cmax: 29.5 ng/mL
[12]; 120 mg, part 2, 120 mg, fasted
  Tmax: 4 h
[12]; 120 mg, part 2, 120 mg, low-fat meal
  Tmax: 6 h
[12]; [27]
  AUC(0-inf): 743 ng·h/mL
  Cmax: 41 ng/mL
[12]; [28]
  AUC(0-inf): 706 ng·h/mL
  Cmax: 39.5 ng/mL
[12]; [29]
  AUC(0-inf): 862 ng·h/mL
  Cmax: 45.8 ng/mL
[12]; [30]
  AUC(0-inf): 768 ng·h/mL
  Cmax: 43 ng/mL
[12]; 160 mg, part 2, 160 mg, fasted
  Tmax: 6 h
[12]; 160 mg, part 2, 160 mg, low-fat meal
  Tmax: 6 h
[12]; mobocertinib and its active metabolites
  Effect of a low-fat meal on PK: did not affect the PK
[12]; [31]
  AUC∞, Geometric LS Mean Ratio (90%CI): 1.02 (0.90‐1.15)
  Cmax, Geometric LS Mean Ratio (90%CI): 0.88 (0.71‐1.09)
[12]; part 2, 160 mg, low-fat meal (test) vs fasted (reference)
  Cmax, Geometric LS Mean Ratio (90%CI): 0.96
[12]; part 2, 120 and 160 mg, low-fat meal and fasted
  Time for which mean plasma concentrations were quantifiable: up to 168 hours

## C#Cc1cccc(Nc2ncnc3cc(OCCOC)c(OCCOC)cc23)c1 [erlotinib]
[13]
  Median progression-free survival: ≈ 2 months

## C=CC(=O)Nc1cc(Nc2nccc(-c3cn(C)c4ccccc34)n2)c(OC)cc1N(C)CCN(C)C [osimertinib]
[13]
  Median progression-free survival: ≈ 2 months
